Reference: the NIST ThermoML archive (doi:10.1021/je400733m)
± gives the expanded uncertainty stated by the source.

Details: for mass density: Gas, isochoric method; for vapor or sublimation pressure: Liquid

F [hydrogen fluoride]
Details | mass density [kg/m3]
363.15 K, 151.2 kPa | 1.024 ± 0.034
363.15 K, 268.6 kPa | 1.886 ± 0.036
363.15 K, 349.7 kPa | 2.574 ± 0.042
363.15 K, 435.2 kPa | 3.463 ± 0.053
363.15 K, 519.5 kPa | 4.617 ± 0.071
363.15 K, 610.3 kPa | 6.318 ± 0.1
363.15 K, 704.7 kPa | 8.73 ± 0.12
363.15 K, 792.4 kPa | 11.696 ± 0.15
373.15 K, 59.5 kPa | 0.389 ± 0.032
373.15 K, 135.1 kPa | 0.89 ± 0.033
373.15 K, 249.7 kPa | 1.674 ± 0.034
373.15 K, 360.6 kPa | 2.495 ± 0.036
373.15 K, 444.9 kPa | 3.191 ± 0.04
373.15 K, 555.7 kPa | 4.277 ± 0.047
373.15 K, 661.8 kPa | 5.611 ± 0.07
373.15 K, 768.8 kPa | 7.405 ± 0.098
373.15 K, 872.6 kPa | 9.733 ± 0.12
373.15 K, 971.7 kPa | 12.608 ± 0.13
383.15 K, 109.3 kPa | 0.69 ± 0.032
383.15 K, 256.8 kPa | 1.656 ± 0.033
383.15 K, 388.4 kPa | 2.569 ± 0.034
383.15 K, 518.3 kPa | 3.557 ± 0.038
383.15 K, 666.4 kPa | 4.865 ± 0.044
383.15 K, 794.6 kPa | 6.263 ± 0.057
383.15 K, 928.9 kPa | 8.187 ± 0.074
383.15 K, 1067 kPa | 10.825 ± 0.097
383.15 K, 1201 kPa | 14.245 ± 0.12
393.15 K, 172.3 kPa | 1.108 ± 0.032
393.15 K, 337.7 kPa | 2.178 ± 0.032
393.15 K, 505.5 kPa | 3.335 ± 0.034
393.15 K, 674.9 kPa | 4.611 ± 0.037
393.15 K, 840.7 kPa | 6.052 ± 0.042
393.15 K, 1013 kPa | 7.764 ± 0.062
393.15 K, 1175 kPa | 10.132 ± 0.08
393.15 K, 1344 kPa | 13.239 ± 0.096
393.15 K, 1498 kPa | 17.048 ± 0.13
403.15 K, 240.6 kPa | 1.492 ± 0.032
403.15 K, 449.3 kPa | 2.829 ± 0.032
403.15 K, 652.2 kPa | 4.216 ± 0.034
403.15 K, 862.3 kPa | 5.791 ± 0.038
403.15 K, 1069 kPa | 7.588 ± 0.044
403.15 K, 1278 kPa | 9.802 ± 0.055
403.15 K, 1491 kPa | 12.74 ± 0.072
403.15 K, 1709 kPa | 16.83 ± 0.12
403.15 K, 1897 kPa | 21.668 ± 0.16
413.15 K, 222.3 kPa | 1.32 ± 0.031
413.15 K, 371.4 kPa | 2.232 ± 0.031
413.15 K, 508.9 kPa | 3.095 ± 0.031
413.15 K, 683.2 kPa | 4.229 ± 0.033
413.15 K, 883.6 kPa | 5.621 ± 0.034
413.15 K, 1059 kPa | 6.93 ± 0.037
413.15 K, 1234 kPa | 8.38 ± 0.044
413.15 K, 1399 kPa | 9.914 ± 0.051
413.15 K, 1557 kPa | 11.607 ± 0.049
413.15 K, 1728 kPa | 13.746 ± 0.074
413.15 K, 2034 kPa | 18.831 ± 0.082
413.15 K, 2223 kPa | 23.108 ± 0.12
433.15 K, 309.8 kPa | 1.785 ± 0.03
433.15 K, 698.6 kPa | 4.1 ± 0.031
433.15 K, 1068.9 kPa | 6.452 ± 0.033
433.15 K, 1452 kPa | 9.113 ± 0.036
433.15 K, 1847 kPa | 12.286 ± 0.042
433.15 K, 2258 kPa | 16.303 ± 0.056
433.15 K, 2635 kPa | 21.034 ± 0.074
433.15 K, 3001 kPa | 27.275 ± 0.12
433.15 K, 3365 kPa | 36.362 ± 0.16
433.15 K, 3703 kPa | 50.976 ± 0.26
453.15 K, 476.5 kPa | 2.703 ± 0.03
453.15 K, 1014 kPa | 5.793 ± 0.031
453.15 K, 1550 kPa | 9.121 ± 0.033
453.15 K, 2081 kPa | 12.797 ± 0.037
453.15 K, 2621 kPa | 17.077 ± 0.048
453.15 K, 3133 kPa | 21.99 ± 0.078
453.15 K, 3651 kPa | 28.309 ± 0.22
453.15 K, 4173 kPa | 36.974 ± 0.14
453.15 K, 4738 kPa | 51.158 ± 0.29
453.15 K, 5189 kPa | 73.046 ± 0.31
473.15 K, 398.6 kPa | 2.061 ± 0.029
473.15 K, 719.1 kPa | 3.785 ± 0.029
473.15 K, 1113 kPa | 5.969 ± 0.03
473.15 K, 1557 kPa | 8.541 ± 0.031
473.15 K, 1986 kPa | 11.159 ± 0.033
473.15 K, 2275 kPa | 13.033 ± 0.034
473.15 K, 2590 kPa | 15.167 ± 0.038
473.15 K, 2992 kPa | 18.107 ± 0.045
473.15 K, 3473 kPa | 22.184 ± 0.059
473.15 K, 4349 kPa | 30.552 ± 0.089
473.15 K, 4995 kPa | 38.609 ± 0.31
473.15 K, 5640 kPa | 49.429 ± 0.33
473.15 K, 6393 kPa | 68.899 ± 0.21
473.15 K, 7041 kPa | 98.187 ± 0.3

Details | vapor or sublimation pressure [kPa]
363.17 K | 822.2 ± 5.7
373.14 K | 1048.5 ± 6.4
383.21 K | 1327.1 ± 7.3
393.11 K | 1659.3 ± 8.4
403.1 K | 2060.2 ± 9.7
413.14 K | 2541.3 ± 11
423.14 K | 3111.5 ± 13
433.06 K | 3778.1 ± 15
443.01 K | 4566 ± 18
454.15 K | 5611.6 ± 19
